Data taken from paper PMC9582194, “The effect of helix-inducing constraints and downsizing upon a transcription block survival-derived functional cJun antagonist” (Cell Reports. Physical Science, 2022).

Assays:
cJun = target: T1, cJun (Homo sapiens, UniProt P05412); assay: CD thermal denaturation of peptide-cJun heterodimers (Tm); format: binding; conditions: CD ellipticity at 222 nm, 1-90 °C; peptide (5 μM)/cJun (5 μM); 20 mM potassium phosphate, 150 mM potassium fluoride, 2 mM TCEP pH 7.4; two-state fit; duplicate experiments, ± one SD
T1 construct: The same 60 amino acid cJun construct, encompassing the entire bZIP domain, was used for all experiments
Protocol: (§1) The precise nature of the interaction between the cJun DBD and the rationally designed acidic domain of HW1 is unknown. HW1 was, therefore, iteratively truncated from the N terminus (HW2–6) to investigate the effect on cJun binding and cJun/TRE DNA antagonism (Table 1). Peptide fraction helicity (fH) was determined by quantifying the circular dichroism (CD) signal at 222 nm of peptide-only samples (Figure S1). Thermal denaturation experiments were then used to determine the melting temperature (Tm) of peptide-cJun heterodimers, which serves as an approximate measure of target engagement. CD was also used to investigate the functional activity of peptides in antagonizing the cJun/TRE DNA interaction. […] This provides a clear and direct measurement of the proportion of DNA bound to cJun. As antagonist peptide concentration was increased, the peak shifted to overlay with that of free TRE-DNA (Figure S4). For each peptide, the data were fit to a Hill equation to determine half-maximal inhibitory concentration (IC50) values, specific to these assay conditions, providing a clear comparative measure of antagonism. The same 60 amino acid cJun construct, encompassing the entire bZIP domain, was used for all experiments regardless of antagonist peptide length.
Figure 2 Iterative N-terminal truncation of HingeW reduces cJun binding and antagonism (A) Thermal denaturation profiles for iteratively truncated peptide (5 μM)/cJun (5 μM) heterodimer samples. (B) CD antagonism data produced by monitoring the shift in a DNA specific peak to provide a direct readout of cJun-DNA binding. Peptides are added at the indicated concentrations to a pre-incubated mixture of cJun (20 μM) and TRE DNA (5 μM). Data points were averaged from triplicate experiments, and error bars indicate one SD. The data were fitted to a Hill equation to determine IC50 values. Some higher peptide concentration data points for HW6 and HW9 are not shown in this plot for clarity.

[1] = Peptide fraction helicity by CD at 222 nm, peptide-only samples; format: physicochemical; conditions: CD signal at 222 nm of peptide-only samples; pH 7.4 phosphate/KF/TCEP buffer; duplicate experiments
Protocol: as §1

[2] = CD thermal denaturation of peptide alone, 222 nm
Protocol: The LZ domain of HW1 has four point mutations from its parent sequence, FosW, which is known to homodimerize.[24]
Protein/DNA samples were suspended in 20 mM potassium phosphate, 150 mM potassium fluoride, and 2 mM TCEP (pH 7.4). cJun was added to DNA before addition of antagonist peptide, and these samples were equilibrated for 30 min before measurement.

T1 sequence (P05412 252-315 limits assumed): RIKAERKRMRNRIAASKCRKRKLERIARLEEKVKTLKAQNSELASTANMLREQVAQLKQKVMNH

What does the source list for “Ac-LVVEEDVLEEEIEQLEERNYALRKEIEDLQKQLEKL-NH2 [HW5]”?
Tm of peptide-cJun heterodimer (cJun): 62.8 ± 1.0 °C; fH, peptide fraction helicity [1]: 46.7%; Tm of peptide alone [2]: 41 °C
